Data on eight compounds can be found in patent US9404916B2, “Use of a protein kinase inhibitor to detect immune cells, such as T cells” (University College Cardiff Consultants Limited, priority 2008, dated 2016).

Series [1] concerns ILA1 CTL. The experiment in a line: pMHCI tetramer staining of ILA1 CTL clone after PKI pre-treatment (flow cytometry). The series is classed as cell-based, human. The conditions noted are these: for enhancement of tetramer staining after PKI pre-incubation: ILA1 CTL, data not shown. A general note: A flow cytometer gives signals particle by particle.
For another series, the system named is T-cell clones. Kind of series: Recovery of responsiveness to antigen after drug removal. Conditions: T-cell clones incubated in 50 nM dasatinib for 24 hours; data not shown. The series is classed as cell-based.
The subject of series [2] is CTL lines (Melan-A/Mart-1 26-35 and influenza matrix M1 58-66). The experiment in a line: Cognate tetramer staining of HLA A2-restricted CTL lines expanded from PBMC. Conditions: 50 nM dasatinib. The series is classed as cell-based, human.
Series [3] has as its system tetramer-positive CD3+CD8+ T-cells. The series is classed as cell-based, human. As to the method: . It is known that pMHCI tetramer-induced signaling can trigger cell death (Purbhoo et al., 2001; Xu et al., 2001; Guillaume et al., 2003; Cebecauer et al., 2005). Cell death induced by tetramer staining was assessed using the amine-reactive viability dye GrViD at the end of the staining procedure, which is spectrally distinct from ViViD. PBMC were stained with ViViD to identify and allow exclusion of dead and dying cells prior to the addition of pMHCI tetramer; GrVID staining was performed after pMHCI tetramer and surface antibody staining. Data were acquired on a BD LSR II flow cytometer and analyzed using FlowJo software. ViViD^±, CD14^+ and CD19^+ cells were excluded from the analysis and the frequency of GrViD-positive cells was assessed in the tetramer-positive CD3+CD8^+ T-cell populations. Representative flow profiles are shown here for CD^+T-cells specific for the HLA A2-restricted epitopes CMV pp65495-503 ([…](SEQ ID NO:3)) and EBV BMLFI259-267 ([…] SEQ ID NO:4)). […]. […] Stained PBMC were acquired on a BD LSR II (Becton Dickinson Immunocytometry Systems, San Jose, Calif., USA) and analyzed using FlowJo software (Tree Star, Inc., Ashland, Oreg., USA).

For a further series, the system named is naïve murine F5 TCR CTL. Kind of series: H2-Db/[…] tetramer staining of F5 TCR transgenic splenocytes. In kind it is cell-based, mouse. The conditions noted are these: 50 nM dasatinib 30 minutes. From the text: C. […] Samples were washed with PBS before flow cytometric analysis.
The test system of series [4] is ILA1 CTL. The experiment in a line: TCR and CD8 expression levels at the CTL cell surface. In kind it is cell-based, human. Conditions: 50 nM dasatinib 37° C.
Series [5] is described as follows: Shelf-life of working solution. In kind it is physicochemical. The conditions noted are these: 100 nM in PBS. On the procedure:
Biological activity was tested in a cell death titration assay on BA/F3 bcr-abl cells as described previously (Magnusson et al., 2002). […] The 1 mM DMSO stock was diluted 1/10,000 in PBS on the day of experimentation to achieve a working solution of 100 nM; subsequent ½ dilution yielded a final concentration of 50 nM in cellular assays unless stated otherwise. The 100 nM working solution was always made up on the day of experimentation as the shelf-life of this solution is short (˜days). Staurosporine (Biomol), Lck inhibitor II (Calbiochem), genestein (calbiochem), herbimycin A (Calbiochem), PP2 (Calbiochem) and PP3 (Calbiochem) were dissolved and stored at −20° C. in DMSO. PKIs were dissolved in PBS prior to use and tested at concentrations of 1 nM, 3 nM, 5 nM, 10 nM, 20 nM, 50 nM, 100 nM, 250 nM, 500 nM and 1 μM.

Series [6] relates to antigen-specific CD8+ T-cells in PBMC. The experiment in a line: pMHCI tetramer staining of PBMC directly ex vivo. In kind it is cell-based, human.
Series [7] deals with HLA DR*0101-restricted CD4+ T-cell clone C6. Conditions: 50 nM dasatinib 30 minutes.
In the next series the test system is T-cells. The conditions noted are these: cited from earlier work.
Series [8] concerns ILA1 CTL. Kind of series: pMHCI tetramer on-rate experiment. The conditions noted are these: dasatinib+tetramer; 50 nM 30 minutes 37° C.; HLA A2/hTERT540-548 tetramer.
Another series relates to Mel13 CTL. The experiment in a line: Antigen-induced TCR downregulation. The conditions noted are these: 50 nM dasatinib; peptide-pulsed C1R-A2 B cells, 4 hours.
The target of series [9] is IE6 TCR (on CTL clone IE6).

Several values for one entry are separate records, joined by “and”; a condition that tells them apart may be missing. Identical values can stand only once. Entries after “also recorded” stand apart in the source; their conditions may differ. Where only a bound is given, the exact number is not on record here.

In the case of `CN[C@@H]1C[C@H]2O[C@@](C)([C@@H]1OC)n1c3ccccc3c3c4c(c5c6ccccc6n2c5c31)C(=O)NC4` [staurosporine], the “enhancement of tetramer staining after PKI pre-incubation” value (shortened to “enhancement of tetramer staining”) in the series with ILA1 CTL [1] is given as “no significant enhancement”.

As to `Nc1ncnc2c1cnn2-c1ccccc1` [PP3], the “enhancement of tetramer staining” value with ILA1 CTL [1] was “no significant enhancement”.

As for `O=c1c(-c2ccc(O)cc2)coc2cc(O)cc(O)c12` [genestein], the “enhancement of tetramer staining” value in the series with ILA1 CTL [1] was “no significant enhancement”.

With `Cc1nc(Nc2ncc(C(=O)Nc3c(C)cccc3Cl)s2)cc(N2CCN(CCO)CC2)n1` [dasatinib, N-(2-chloro-6-methyl-phenyl)-2-(6-(4-(2-hydroxyethyl)-piperazin-1-yl)-2-methylpyrimidin-4-ylamino)thiazole-5-carboxamide], in the series with ILA1 CTL [1], the “increase in pMHCI tetramer staining” value stood at 60% and the “increase in pMHCI tetramer staining intensity” value is given as 89%. Further, the “time to regain responsiveness to antigen after drug removal” value with T-cell clones is ≤ 1 h. Also, in series [2], the “increase in fluorescence intensity of T-cells that bound tetramer weakly” value was > 20 fold and the “increase in staining intensity of all cognate CD8+ T-cells” value was “at least 2 fold”. Besides, the “frequency of GrViD-positive dead cells within the tetramer-positive population” value in series [3] is reported as “always lower; also recorded: reduced”. The “pMHCI tetramer staining of naïve murine F5 TCR CTL directly ex vivo” value in the series with naïve murine F5 TCR CTL was “enhanced”. Besides, the “time until significant increases in TCR and CD8 levels” value with ILA1 CTL [4] was > 30 min. Besides, the “shelf-life of 100 nM working solution” value in series [5] is “short”. In addition, in series [6], the “pMHCI staining intensity and percentage of antigen-specific CD8+ T-cells” value is listed as “substantial increase”. In addition, in [7], the “pMHCII tetramer staining of CD4+ T-cell clone” value was “enhanced”. Moreover, in the series with T-cells, the “concentrations not toxic to T-cells in the short term” value is recorded as < 100 nM. In the series on ILA1 CTL [8], the “tetramer on-rate, fast rate” value is 0.42 min⁻¹ and the “tetramer on-rate, slow rate” value was determined as 0.06 min⁻¹. The “antigen-induced TCR downregulation from the CTL surface” value in the series on Mel13 CTL is “block antigen-induced TCR downregulation”.

As for “HLA A2/PPI15-24 tetramer (from UniProt P61769 21-119) (peptide-MHC)”, in the series with Short term line, the MFI is 217 and 347.

Take `CO[C@H]1[C@@H](OC)C[C@H](C)[C@@H](OC)C2=CC(=O)C=C(NC(=O)/C(C)=C/C=C\[C@H](OC)[C@@H](OC(N)=O)/C(C)=C/[C@@H]1C)C2=O` [herbimycin, herbimycin A]: the “enhancement of tetramer staining” value in the series with ILA1 CTL [1] is recorded as “no significant enhancement”.

In series [9], “HLA A2 presenting PPI15-24 peptide on pulsed target cells (from UniProt P61769 21-119) (peptide-MHC)” had a % TNFα-positive cells (intracellular cytokine staining, TNF-APC against SSC-Height, 6 h with PPI peptide) of 30.9%.

For `CC(C)(C)n1nc(-c2ccc(Cl)cc2)c2c(N)ncnc21` [PP2], in the series on ILA1 CTL [1], the “enhancement of tetramer staining” value is recorded as “moderate increase”.
